Among the data in PubChem BioAssay (NCI) are TGI and GI50 values, retold here.

The structures appear in SMILES notation. Where “and” joins values, the source holds several entries; their conditions need not be identical. Identical values can stand only once.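 Interpolation was linear, between the two tested concentrations surrounding the appropriate level; five concentrations were tested over 48 hours in 96-well plates. Here, GI50 denotes the concentration required for 50% inhibition of growth. TGI: concentration producing complete growth inhibition.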 Where only a bound is given, the exact number is not on record here.

Among the test systems are SNB-19 CNS; MDA-MB-231 breast; HOP-62 NSCLC; TK-10 renal; SF-539 CNS; ACHN renal; NCI-H522 lung; NCI-H460 lung; SK-OV-3 ovarian; EKVX NSCLC; IGROV1 ovarian; SW-620 colon; OVCAR-8 ovarian.
What all share (experiment): growth of human tumour cells (NCI), 48 h

Regarding `CN(CCCNC(=O)c1nn(-c2ccc(Cl)cc2Cl)c2c1ccc1ccccc12)CCCNC(=O)c1nn(-c2ccc(Cl)cc2Cl)c2c1ccc1ccccc12`, the TGI in the assay with SNB-19 CNS was found to be 2.89 µM; in the assay on MDA-MB-231 breast it was 3.23 µM; with HOP-62 NSCLC, 3.31 µM; with TK-10 renal it was 3.41 µM; with SF-539 CNS, 3.47 µM; in the assay with ACHN renal, 3.02 µM. Also, the TGI worked out at 2.83 µM in the assay with NCI-H522 lung; 3.51 µM in the assay on NCI-H460 lung; 3.49 µM with SK-OV-3 ovarian; 3.29 µM in the assay with EKVX NSCLC; 3.2 µM in the assay on IGROV1 ovarian.
For the compound `NC(CCOCCP(=O)(O)CCOCCC(N)C(=O)O)C(=O)O` (stereo not given), the TGI in the assay with SNB-19 CNS, with MDA-MB-231 breast, in the assay with SW-620 colon, in the assay on TK-10 renal, in the assay with SF-539 CNS and in the assay with ACHN renal was more than 100 µM in each case. Also, the TGI in the assay with NCI-H522 lung, in the assay with NCI-H460 lung, in the assay with OVCAR-8 ovarian, in the assay with SK-OV-3 ovarian, with EKVX NSCLC and with IGROV1 ovarian was more than 100 µM in each case.
`C=CC(C)CCC(C/C=C(\C)CCC=C(C)C)C(=C)CCCC(C)C` (stereo not given): the TGI in the assay with SNB-19 CNS, in the assay on MDA-MB-231 breast, in the assay on SW-620 colon, in the assay with HOP-62 NSCLC, in the assay on TK-10 renal and with SF-539 CNS was more than 100 µM each time. Moreover, the TGI in the assay with ACHN renal, in the assay with NCI-H522 lung, in the assay on NCI-H460 lung, in the assay with OVCAR-8 ovarian, with SK-OV-3 ovarian and in the assay with EKVX NSCLC was more than 100 µM each time. Also, the TGI with IGROV1 ovarian was more than 100 µM.
For the compound `O=C1OCc2cccc3c2-c2c1cccc2C(=O)OC3`, the TGI with SNB-19 CNS, in the assay on HOP-62 NSCLC, with TK-10 renal, in the assay with SF-539 CNS, with OVCAR-8 ovarian and in the assay with SK-OV-3 ovarian was more than 100 µM in each case. Further, the TGI with EKVX NSCLC and with IGROV1 ovarian was more than 100 µM each time.
As to `CCc1c(Cc2cc(C)cc(C)c2)n2c(nc1=O)SCC2CBr` (stereo not given), the TGI in the assay with SNB-19 CNS, in the assay on MDA-MB-231 breast, in the assay on SW-620 colon, in the assay with TK-10 renal, with SF-539 CNS and with ACHN renal was more than 50 µM in each case. Besides, the TGI is more than 50 µM with NCI-H522 lung; more than 50 µM in the assay with NCI-H460 lung; 40.4 µM with OVCAR-8 ovarian; more than 50 µM in the assay with EKVX NSCLC; more than 50 µM in the assay on IGROV1 ovarian.
As to `C/C(=C\c1ccc(Cl)c(Cl)c1)[N+](=O)[O-]`, the TGI in the assay with SNB-19 CNS was 9.45 µM; in the assay with MDA-MB-231 breast, 3.94 µM; with HOP-62 NSCLC, 3.15 µM; in the assay on TK-10 renal, 3.19 µM and 3.6 µM; in the assay on SF-539 CNS, 5.77 µM; in the assay with ACHN renal, 3.6 µM and 3.82 µM. Also, the TGI in the assay with NCI-H522 lung is 3.14 µM; with NCI-H460 lung it was 14 µM and > 100 µM; in the assay on OVCAR-8 ovarian it was 3.4 µM; with SK-OV-3 ovarian, 29.8 µM; in the assay on EKVX NSCLC, 3.9 µM and 4.58 µM; in the assay with IGROV1 ovarian it was 3.85 µM. Besides, the GI50 was 1.33 µM in the assay with SW-620 colon; 1.67 µM in the assay on TK-10 renal; 1.77 µM in the assay on ACHN renal; 3.15 µM in the assay with NCI-H460 lung; 1.62 µM with OVCAR-8 ovarian; 16.3 µM in the assay on SK-OV-3 ovarian.
In the case of `c1ccc(C[n+]2cccc(-c3cc4ccccc4[nH]3)c2)cc1`, the TGI was more than 100 µM in the assay with SNB-19 CNS; more than 100 µM in the assay on MDA-MB-231 breast; more than 100 µM in the assay with SW-620 colon; 96.4 µM in the assay with HOP-62 NSCLC; more than 100 µM with TK-10 renal; more than 100 µM in the assay with ACHN renal. The TGI with NCI-H522 lung was 53.9 µM; in the assay on NCI-H460 lung, more than 100 µM; in the assay with OVCAR-8 ovarian it was more than 100 µM; in the assay with SK-OV-3 ovarian, more than 100 µM; with EKVX NSCLC, more than 100 µM; in the assay with IGROV1 ovarian it was 42.6 µM.
For the compound `CCCCC(=O)Oc1ccc2c(C)cc(=O)oc2c1`, the TGI in the assay with SNB-19 CNS, with MDA-MB-231 breast, with SW-620 colon, in the assay with HOP-62 NSCLC, in the assay with TK-10 renal and with SF-539 CNS was more than 100 µM each time. Also, the TGI with ACHN renal, with NCI-H522 lung, in the assay on NCI-H460 lung, with OVCAR-8 ovarian, in the assay on EKVX NSCLC and in the assay with IGROV1 ovarian was more than 100 µM in each case.
Turning to `O=C1/C(=C/c2ccco2)N=C(c2ccccc2)N1c1cc2cc(Sc3ccccc3)ccc2[nH]1`, the TGI with SNB-19 CNS, in the assay on SW-620 colon, in the assay on SF-539 CNS, in the assay with ACHN renal, in the assay with NCI-H522 lung and with OVCAR-8 ovarian was more than 25 µM in each case. Moreover, the TGI in the assay on EKVX NSCLC and in the assay on IGROV1 ovarian was more than 25 µM throughout.
Regarding `NC(=O)NC(=O)c1cccc(NC(=O)CBr)c1`, the TGI in the assay with SNB-19 CNS worked out at 13.1 µM; in the assay on MDA-MB-231 breast, 0.951 µM; with SW-620 colon, 3.3 µM; in the assay with HOP-62 NSCLC, 1.29 µM; in the assay with TK-10 renal, 0.281 µM; with ACHN renal it was 1.4 µM. Besides, the TGI was less than 0.01 µM with NCI-H522 lung; 0.166 µM in the assay with NCI-H460 lung; 0.963 µM in the assay with SK-OV-3 ovarian; 6.8 µM in the assay on EKVX NSCLC; 0.368 µM with IGROV1 ovarian.
`COc1cccc(CC2Cc3ccccc3CC(=O)N2)c1` (stereo not given): the TGI is more than 100 µM in the assay with SNB-19 CNS; 79.2 µM in the assay on MDA-MB-231 breast; more than 100 µM in the assay with SW-620 colon; 72.5 µM in the assay on HOP-62 NSCLC; more than 100 µM with TK-10 renal; more than 100 µM with SF-539 CNS. In addition, the TGI in the assay with ACHN renal is more than 100 µM; in the assay on NCI-H460 lung, 72.8 µM; in the assay with OVCAR-8 ovarian, more than 100 µM; in the assay on SK-OV-3 ovarian, more than 100 µM; with EKVX NSCLC it was more than 100 µM; in the assay with IGROV1 ovarian, more than 100 µM.
Turning to `O=C(c1ccccc1)c1sc2c(=O)c(C(=O)c3ccccc3)c(C(=O)c3ccccc3)sc2c(=O)c1C(=O)c1ccccc1`, the TGI with SNB-19 CNS was more than 100 µM; with MDA-MB-231 breast it was more than 100 µM; with SW-620 colon, more than 100 µM; in the assay with HOP-62 NSCLC it was more than 100 µM; in the assay with TK-10 renal it was more than 100 µM; in the assay on SF-539 CNS, 51.1 µM. The TGI was more than 100 µM in the assay on ACHN renal; 38.6 µM in the assay on NCI-H522 lung; more than 100 µM in the assay on NCI-H460 lung; more than 100 µM in the assay with OVCAR-8 ovarian; more than 100 µM in the assay with SK-OV-3 ovarian; more than 100 µM with EKVX NSCLC. Moreover, in the assay with IGROV1 ovarian, the TGI amounted to 69.2 µM.
Turning to `CC(C)NCCC(O)c1cc2ccccc2o1` (stereo not given), the TGI with SNB-19 CNS, with MDA-MB-231 breast, with SW-620 colon, in the assay with HOP-62 NSCLC, in the assay with TK-10 renal and in the assay on SF-539 CNS was more than 100 µM in each case. Also, the TGI in the assay on ACHN renal, in the assay on NCI-H522 lung, in the assay on NCI-H460 lung, with OVCAR-8 ovarian, with SK-OV-3 ovarian and with EKVX NSCLC was more than 100 µM in each case. In the assay on IGROV1 ovarian, this compound showed a TGI of more than 100 µM.
Regarding `c1ccc(-c2nnc(-c3nsc4ccccc34)o2)cc1`, the TGI with SNB-19 CNS, in the assay on SW-620 colon, in the assay with HOP-62 NSCLC, in the assay on TK-10 renal, in the assay with SF-539 CNS and in the assay with OVCAR-8 ovarian was more than 100 µM each time. The TGI with EKVX NSCLC and in the assay with IGROV1 ovarian was more than 100 µM each time.
For `OC1CN2Cc3cc4c(cc3[C@]13C=C[C@@H](O)CC23)OCO4` (stereo not given in full), the TGI in the assay with SNB-19 CNS is more than 100 µM; in the assay with MDA-MB-231 breast, more than 100 µM; in the assay on SW-620 colon, more than 100 µM; in the assay on HOP-62 NSCLC, more than 100 µM; with TK-10 renal, 93.3 µM; in the assay on SF-539 CNS, more than 100 µM. Also, the TGI in the assay on ACHN renal was more than 100 µM; in the assay on NCI-H522 lung, more than 100 µM; in the assay on NCI-H460 lung, 45.6 µM; in the assay with OVCAR-8 ovarian it was more than 100 µM; in the assay with SK-OV-3 ovarian, more than 100 µM; with EKVX NSCLC, 94.5 µM. Further, the TGI with IGROV1 ovarian was more than 100 µM.
On to `NC(Cc1ccccc1)(C(=O)O)C(=O)O`, for which the TGI in the assay with SNB-19 CNS, with MDA-MB-231 breast, with SW-620 colon, with HOP-62 NSCLC, with TK-10 renal and with SF-539 CNS was more than 100 µM each time. Besides, the TGI in the assay with ACHN renal, in the assay on NCI-H522 lung, in the assay on NCI-H460 lung, in the assay on OVCAR-8 ovarian, in the assay on SK-OV-3 ovarian and with EKVX NSCLC was more than 100 µM throughout. The same compound showed a TGI in the assay on IGROV1 ovarian of more than 100 µM.
Turning to `COc1ccc(Cc2nccc3cc(OC)c(OC)cc23)cc1OC`, the TGI in the assay on SNB-19 CNS, in the assay on MDA-MB-231 breast, with SW-620 colon, in the assay on HOP-62 NSCLC, in the assay with TK-10 renal and in the assay with SF-539 CNS was more than 100 µM throughout. Besides, the TGI with ACHN renal, in the assay on NCI-H522 lung, in the assay with NCI-H460 lung, in the assay with OVCAR-8 ovarian, in the assay on SK-OV-3 ovarian and in the assay with EKVX NSCLC was more than 100 µM each time. The compound also registered a TGI in the assay on IGROV1 ovarian of more than 100 µM.
With `CCOC(=O)C1=C(C)N(NC(N)=O)C2(O)CCCC(=O)C12C` (stereo not given), the TGI in the assay on SNB-19 CNS, in the assay on SW-620 colon, in the assay with TK-10 renal, in the assay with SF-539 CNS, with ACHN renal and in the assay with NCI-H522 lung was more than 100 µM each time. In addition, the TGI in the assay with OVCAR-8 ovarian, in the assay on SK-OV-3 ovarian and in the assay with IGROV1 ovarian was more than 100 µM each time.
Take `O=C1/C(=C/c2ccc(Cl)cc2)N=C(c2ccccc2)N1c1ccc(S(=O)(=O)Nc2nccs2)cc1`: the TGI is more than 100 µM in the assay with SNB-19 CNS; 55.9 µM in the assay with MDA-MB-231 breast; more than 100 µM in the assay on SW-620 colon; more than 100 µM in the assay with HOP-62 NSCLC; more than 100 µM in the assay on TK-10 renal; more than 100 µM in the assay on SF-539 CNS. Besides, the TGI in the assay with ACHN renal, in the assay on NCI-H460 lung, in the assay with SK-OV-3 ovarian and in the assay on EKVX NSCLC was more than 100 µM each time.
